Experimental data reported in patent publication US10647680B2, “Urea compound, preparation method therefor and medical use thereof” (Ancureall Pharmaceutical (Shanghai) Co., Ltd., priority 2016, dated 2020).

What was measured:
Format in all cases: cell-based
HCC1954 (HER2/ErbB2 amp) = assay: In vitro growth inhibition (GI50), HCC1954; details: Homo sapiens
Text: (§1) Tumor cell line is an effective cell model for studying the inhibition of tumor cell growth or proliferation in vitro. In the present invention, a representative tumor cell line was selected to determine the cell growth inhibition activity of the present compound. All cell lines used were from ATCC, DSMZ, and the Cell Bank of the Chinese Academy of Sciences. Cell culture conditions and methods were in accordance with the requirements of each cell line. Cells were subcultured in vitro for no more than 3 passages each time, and as required, single-clone purification and identification of cell lines could be carried out.
(§2) The cell culture media used were RPMI1640 (Gibco), MEM (Gibco), McCOY'S5A (Gibco), and IMDM (Gibco). The complete medium was prepared by supplement with 5˜20% fetal calf serum (Gibco), 1% double-antibiotics (10000 units/mL penicillin and 10000 units/mL), 2 mM glutamine or 1 mM sodium pyruvate, respectively.
Human gastric cancer cell line NCI-N87 (HER2/ErbB2 amp, ATCC), human breast cancer cell line HCC1954 (HER2/ErbB2 amp, ATCC) and ZR-75-30 (HER2/ErbB2 amp, ATCC), human adenocarcinoma cell line AU565 (HER2/ErbB2 amp, ATCC), human lung squamous cell carcinoma cell line NCI-H2170 (HER2/ErbB2 amp, ATCC), human bronchioalveolar adenocarcinoma cell line NCI-H1781 (HER2/ErbB2 Ins G776V,C mutant type, ATCC) were cultured with a 1×RPMI1640 complete medium (10% FBS), respectively. Human lung adenocarcinoma cell line Calu-3 (HER2/ErbB2 amp, ATCC) was cultured with 1×MEM, 10% FBS, 1% double antibody, 1% NEAA (Gibco), 2 mM glutamine and 1 mM sodium pyruvate. The human breast cancer cell line SK-BR-3 (HER2/ErbB2 amp, ATCC) was cultured with a McCOY'S5A complete medium (10% FBS).
(§3) Adherent cells were digested with 0.25% pancreatin-EDTA (Gibco). The suspension cells were collected by centrifugation. The supernatant was discarded and the cell pellet was resuspended and counted. Different cell concentrations (5˜10×10^4 cells/mL) were prepared according to the growth cycle of each cell line and then seeded on a 96-well plate (Corning), 100 μL/well. The cells were incubated overnight at 37° C., 5% CO2. The compounds were added to the cells on the second day with 2 wells in parallel. The final concentration of organic solvent shall not exceed 1%. The cells were continually incubated for 3 to 5 days, and then subjected to MTT assay.
(§4) The compound of the present invention and the control compound were dissolved in DMSO (Sigma) respectively, with the purity of more than 98%. The compound was stored in a concentration of 10 mM at −20° C. and diluted to 2- or 10-fold series prior to use.
(§5) Dojindo CCK8 reagent kit was used as MTT assay. THERMO […] FC meter was used as microplate reader.
(§6) For adherent cells, culture medium was removed and immediately replaced with the fresh prepared medium which contains 10% CCK8 reagent (100 μL/well). For the suspension cells, CCK8 was directly added to 10% of the final concentration. The cells were continually incubated for 1˜4 h. When a dark yellow color could be observed in the solvent control wells, the absorbance value at OD450 nm was measured and the cell growth rate was calculated according to the following formula: Cell Growth Rate (%)=100*(T−T0)/(C−T0) T=optical density of drug treatment cell well—optical density of blank control well; T0=optical density of cell well before drug treatment—optical density of blank control well; C=optical density of cell well of solvent control group—optical density of blank control well. The concentration value of 50% inhibition of cell growth (GI50) was calculated according to the drug concentration and cell growth rate curve. The experiment was independently repeated 1˜3 times, and subject to biological statistical analysis. 4. Experimental Results
Tumor cell growth inhibition test was performed by selecting representative compounds (compounds 4, 11, 12, 16, 27, 68, 71, 77, 79, 89 and 116 of the present invention). […]

[1] = system: PC-9 (EGFR exon19 E746-A750 deletion); assay: In vitro growth inhibition (GI50), PC-9; details: Homo sapiens; PC-9, EGFR DelE746-A750
Text: as §1, §2
(§7) Human epidermal cancer cell line A431 (EGFR WT, amplification and high expression, from Shanghai Cell Bank of Chinese Academy of Sciences and ATCC), human lung cancer cell line NCI-H292 (EGFR WT, purchased from Shanghai Cell Bank of Chinese Academy of Sciences), NSCLC cell lines PC-9 and HCC827 (EGFR exon19 E746-A750 deletion, two cell lines are sensitive to the first-generation EGFR PTK inhibitor), NSCLC cell line NCI-H1975 (EGFR L858R/T790M and the first-generation EGFR inhibitor resistance, ATCC) were cultured with 1×RPMI1640 complete medium (supplement with 10% FBS), respectively.
as §3, §4, §5, §6
(§8) Tumor cell growth inhibition test was performed by selecting representative compounds (compounds 4, 11, 12, 16, 27, 68, 71, 77, 79, 89 and 116 of the present invention). The initial concentration of the compound was 5,000 nM, then it was serially diluted by 2-fold or 10-fold to 0.01 nM. The GI50 value of each test compound was calculated according to the GI50 assay and calculation method. […]

NCI-H292 (EGFR WT) = assay: In vitro growth inhibition (GI50), NCI-H292; details: Homo sapiens
Text: as §1, §2, §7, §3, §4, §5, §6, §8

Measured: GI50

CC(C)(C)c1cc(NC(=O)Nc2ccc(-n3cnc4cc(OCCN5CCOCC5)ccc43)cc2)[nH]n1 [Compound 89, 1-(5-tert-butyl-2H-pyrazol-3-yl)-3-{4-[5-(2-morpholin-4-yl-ethoxyl)-benzimidazol-1-yl]-phenyl}-urea]
> 2.5 µM: all assays above

CC(C)(C)c1cc(NC(=O)Nc2ccc(-n3cnc4cc(O)ccc43)cc2)no1 [Compound 4, 1-(5-tert-butyl-isoxazol-3-yl)-3-[4-(5-hydroxy-benzimidazol-1-yl)-phenyl]-urea]
> 2.5 µM: all assays above

CC(C)(C)c1cc(NC(=O)Nc2ccc(-n3cnc4cc(OCCO)ccc43)cc2)no1 [Compound 11, 1-(5-tert-butyl-isoxazol-3-yl)-3-{4-[5-(2-hydroxy-ethoxyl)-benzimidazol-1-yl]-phenyl]-urea]
> 2.5 µM: all assays above

COCCOc1ccc2c(c1)ncn2-c1ccc(NC(=O)Nc2cc(C(C)(C)C)n[nH]2)cc1 [Compound 77, 1-(5-tert-butyl-2H-pyrazol-3-yl)-3-{4-[5-(2-methoxyl-ethoxyl)-benzimidazol-1-yl]-phenyl}-urea]
> 2.5 µM: all assays above

CC(C)(C)c1cc(NC(=O)Nc2ccc(-n3cnc4ccccc43)cc2)[nH]n1 [Compound 68, 1-(4-benzimidazol-1-yl-phenyl)-3-(5-tert-butyl-2H-pyrazol-3-yl)-urea]
> 2.5 µM: all assays above

CC(C)(C)c1cc(N)n(C(=O)Nc2ccc(-n3cnc4ccccc43)cc2)n1 [Compound 116, 5-amino-3-tert-butyl-pyrazol-1-carboxylic acid (4-benzimidazol-1-yl-phenyl)-amide]
> 2.5 µM: all assays above

CC(C)(C)c1cc(NC(=O)Nc2ccc(-n3cnc4cc(OCCN5CCOCC5)ccc43)cc2)no1 [Compound 16, 1-(5-tert-butyl-isoxazol-3-yl)-3-{4-[5-(2-morpholin-4-yl-ethoxyl)-benzimidazol-1-yl]-phenyl}-urea]
> 2.5 µM: all assays above

COc1ccc2c(c1)ncn2-c1ccc(NC(=O)Nc2cc(C(C)(C)C)n[nH]2)cc1 [Compound 71, 1-(5-tert-butyl-2H-pyrazol-3-yl)-3-[4-(5-methoxyl-benzimidazol-1-yl)-phenyl]-urea]
> 2.5 µM: all assays above

CC(C)(C)c1cc(NC(=O)Nc2ccc(-n3cnc4cc(OCCO)ccc43)cc2)[nH]n1 [Compound 79, 1-(5-tert-butyl-2H-pyrazol-3-yl)-3-{4-[5-(2-hydroxy-ethoxyl)-benzimidazol-1-yl]-phenyl]urea]
> 2.5 µM: all assays above

CC(C)(C)c1cc(NC(=O)Nc2ccc(-n3cnc4ccc(OCCN5CCOCC5)cc43)cc2)no1 [Compound 27, 1-(5-tert-butyl-isoxazol-3-yl)-3-{4-[6-(2morpholin-4-yl-ethoxyl)-benzimidazol-1-yl]-phenyl}-urea]
> 2.5 µM: all assays above
